Where a name gives a salt, the structure may show the parent alone.
target: T1, recombinant IRAK-4 kinase (Homo sapiens, UniProt Q9NWZ3); assay: IRAK-4 Biochemical Assay (TR-FRET); conditions: 30 min pre-incubation, 100 nM Biotin Histone H3, 20 μM ATP, read-out: IC50 values for IRAK4 activity
T1 construct: purchased Millipore, USA
T1 sequence (Q9NWZ3 1-460): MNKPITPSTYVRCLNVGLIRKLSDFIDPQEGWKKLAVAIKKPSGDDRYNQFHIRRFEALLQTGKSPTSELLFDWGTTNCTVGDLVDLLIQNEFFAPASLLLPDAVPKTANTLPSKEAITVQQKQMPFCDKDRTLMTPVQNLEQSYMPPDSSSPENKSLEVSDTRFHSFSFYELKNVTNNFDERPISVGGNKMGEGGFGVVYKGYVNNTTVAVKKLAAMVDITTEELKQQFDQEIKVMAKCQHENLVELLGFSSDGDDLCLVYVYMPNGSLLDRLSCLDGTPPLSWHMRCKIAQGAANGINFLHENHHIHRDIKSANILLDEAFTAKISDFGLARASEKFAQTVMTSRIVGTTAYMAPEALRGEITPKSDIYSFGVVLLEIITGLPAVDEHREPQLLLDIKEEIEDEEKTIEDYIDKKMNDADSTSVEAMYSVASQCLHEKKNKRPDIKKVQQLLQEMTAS
Method: Compounds were tested for their potential to inhibit IRAK-4 enzyme in a TR-FRET assay using recombinant IRAK-4 kinase from Millipore, USA. The assay buffer was 50 mM Tris-HCl pH 7.5, 20 mM MgCl2, 1 mM EGTA, 2 mM DTT, 3 mM MnCl2 and 0.01% Tween 20.5 ng of IRAK-4 kinase was used for the assay. After pre-incubation of enzyme with test compound for 30 minutes at room temperature, a substrate mixture containing 100 nM Biotin Histone H3 (Millipore, USA) and 20 μM ATP (Sigma, USA) was added and the reaction was incubated for 30 min. Post incubation, the reaction was stopped by the addition of stop mix containing 40 mM EDTA, 1 nM of Europium-Anti-Phospho-Histone H3 (Ser10) antibody (Perkin Elmer, USA) and 20 nM SureLight Allophycocyanin-Streptavidin (Perkin Elmer, USA). The fluorescence emission at 615 nm and 665 nm were measured at an excitation of 340 nm and the percent inhibition was estimated from the ratio of the fluorescence intensities [(F665/F615)×10000]. The compounds were initially screened at 1 μM and 10 μM concentrations and potent compounds (>50% inhibition at 1 μM) were taken for dose response studies. The IC50 values were estimated by fitting the dose-response data to sigmoidal dose response (variable slope), curve fitting program using Graphpad Prism software Version 6.01.

Row | IC50 | Structure (SMILES)
1 | < 0.05 µM | C[C@H](O)Cn1cc(-c2cccc(C(=O)Nc3cc4cn(C)nc4cc3C3CC3)n2)cn1 [Example 47, (S)—N-(6-cyclopropyl-2-methyl-2H-indazol-5-yl)-6-(1-(2-hydroxypropyl)-1H-pyrazol-4-yl)picolinamide]
2 | < 0.05 µM | Cc1cc(-c2nc(C(=O)Nc3cc4cn(C)nc4cc3N3CCCCCC3)co2)ccn1 [Example 71, N-(6-(azepan-1-yl)-2-methyl-2H-indazol-5-yl)-2-(2-methylpyridin-4-yl)oxazole-4-carboxamide]
3 | < 0.05 µM | Cc1cnccc1-c1nc(C(=O)Nc2cc3cn(C)nc3cc2N2CCCCC2)co1 [Example 22, N-(2-methyl-6-(piperidin-1-yl)-2H-indazol-5-yl)-2-(3-methylpyridin-4-yl)oxazole-4-carboxamide]
4 | < 0.05 µM | Cn1cc2cc(NC(=O)c3coc(-c4ccnc(N)c4)n3)c(N3CCC(F)CC3)cc2n1 [Example 90, 2-(2-aminopyridin-4-yl)-N-(6-(4-fluoropiperidin-1-yl)-2-methyl-2H-indazol-5-yl)oxazole-4-carboxamide hydrochloride]
5 | < 0.05 µM | Cn1cc2cc(NC(=O)c3cccc(Br)n3)c(N3CCCCC3)cc2n1 [Example 23, 6-bromo-N-(2-methyl-6-(piperidin-1-yl)-2H-indazol-5-yl)picolinamide]
6 | < 0.05 µM | Cc1cc(-c2ccc(C(=O)Nc3cc4cn(C)nc4cc3N3CCCC(O)C3)o2)ccn1 (stereo not drawn) [Example 70, N-(6-(3-hydroxypiperidin-1-yl)-2-methyl-2H-indazol-5-yl)-5-(2-methylpyridin-4-yl)furan-2-carboxamide]
7 | < 0.05 µM | Cc1ccc(C(=O)Nc2cc3cn(C)nc3cc2N2CCCCC2)nc1Cl [Example 24, 6-chloro-5-methyl-N-(2-methyl-6-(piperidin-1-yl)-2H-indazol-5-yl)picolinamide]
8 | < 0.05 µM | Cn1cc2cc(NC(=O)c3coc(-c4ccnc(N)c4)n3)c(N3CCCC(O)C3)cc2n1 (stereo not drawn) [Example 102, 2-(2-aminopyridin-4-yl)-N-(6-(3-hydroxypiperidin-1-yl)-2-methyl-2H-indazol-5-yl)oxazole-4-carboxamide hydrochloride]
9 | < 0.05 µM | Cc1cc(-c2nc(C(=O)Nc3cc4cnn(C5CC5)c4cc3N3CCCCC3)co2)ccn1 [Example 31, N-(1-cyclopropyl-6-(piperidin-1-yl)-1H-indazol-5-yl)-2-(2-methylpyridin-4-yl)oxazole-4-carboxamide hydrochloride]
10 | < 0.05 µM | Cc1cc(-c2nc(C(=O)Nc3cc4cn(C5CCCC5)nc4cc3C3CC3)co2)ccn1 [Example 6, N-(2-cyclopentyl-6-cyclopropyl-2H-indazol-5-yl)-2-(2-methylpyridin-4-yl) oxazole-4-carboxamide]
11 | < 0.05 µM | Cn1cc(-c2cccc(C(=O)Nc3cc4cn(C)nc4cc3N3CCCCC3)n2)cn1 [Example 19, 6-(1-methyl-1H-pyrazol-4-yl)-N-(2-methyl-6-(piperidin-1-yl)-2H-indazol-5-yl)picolinamide]
12 | < 0.05 µM | Cn1cc2cc(NC(=O)c3cccc(N4CCC(O)C4)n3)c(N3CCCCC3)cc2n1 (stereo not drawn) [Example 40, 6-(3-hydroxypyrrolidin-1-yl)-N-(2-methyl-6-(piperidin-1-yl)-2H-indazol-5-yl)picolinamide]
13 | < 0.05 µM | Cc1cc(-c2nc(C(=O)Nc3cc4cnn(C)c4cc3N3CCC(O)CC3)co2)ccn1 [Example 77, N-(6-(4-hydroxypiperidin-1-yl)-1-methyl-1H-indazol-5-yl)-2-(2-methylpyridin-4-yl)oxazole-4-carboxamide]
14 | < 0.05 µM | Cc1cc(-c2nc(C(=O)Nc3cc4cnn(CCO)c4cc3N3CCC(O)CC3)co2)ccn1 [Example 117, N-(1-(2-hydroxyethyl)-6-(4-hydroxypiperidin-1-yl)-1H-indazol-5-yl)-2-(2-methylpyridin-4-yl)oxazole-4-carboxamide]
15 | < 0.05 µM | Cn1cc2cc(NC(=O)c3coc(N4CC[C@H](N)C4)n3)c(N3CCCCC3)cc2n1 [Example 44, (S)-2-(3-aminopyrrolidin-1-yl)-N-(2-methyl-6-(piperidin-1-yl)-2H-indazol-5-yl)oxazole-4-carboxamide]
16 | < 0.05 µM | Cc1cc(-c2nc(C(=O)Nc3cc4cn(C)nc4cc3N3CC[C@H](O)C3)co2)ccn1 [Example 64, (S)—N-(6-(3-hydroxypyrrolidin-1-yl)-2-methyl-2H-indazol-5-yl)-2-(2-methylpyridin-4-yl)oxazole-4-carboxamide]
17 | 0.05 to 0.1 µM | Cn1cc2cc(NC(=O)c3cccc(N4CC[C@@H](N)C4)n3)c(N3CCCCC3)cc2n1 [Example 42, (R)-6-(3-aminopyrrolidin-1-yl)-N-(2-methyl-6-(piperidin-1-yl)-2H-indazol-5-yl)picolinamide]
18 | < 0.05 µM | Cc1cc(-c2nc(C(=O)Nc3cc4cn(C)nc4cc3N3CCC(O)CC3)co2)ccn1 [Example 58, N-(6-(4-hydroxypiperidin-1-yl)-2-methyl-2H-indazol-5-yl)-2-(2-methylpyridin-4-yl)oxazole-4-carboxamide]
19 | > 0.1 µM | Cc1cc(-c2nc(C(=O)Nc3cc4cnn(C)c4cc3N3CCC3)co2)ccn1 [Example 59, N-(6-(azetidin-1-yl)-1-methyl-1H-indazol-5-yl)-2-(2-methylpyridin-4-yl)oxazole-4-carboxamide]
20 | < 0.05 µM | Cc1cc(-c2nc(C(=O)Nc3cc4cn(C)nc4cc3N3CCC(F)CC3)co2)ccn1 [Example 91, N-(6-(4-fluoropiperidin-1-yl)-2-methyl-2H-indazol-5-yl)-2-(2-methylpyridin-4-yl)oxazole-4-carboxamide hydrochloride]
21 | < 0.05 µM | Cn1cc2cc(NC(=O)c3cccc(-c4cn[nH]c4)n3)c(N3CCCCC3)cc2n1 [Example 1, N-(2-methyl-6-(piperidin-1-yl)-2H-indazol-5-yl)-6-(1H-pyrazol-4-yl) picolinamide]
22 | < 0.05 µM | Cc1cc(-c2nc(C(=O)Nc3cc4cnn(C)c4cc3N3CCCCCC3)co2)ccn1 [Example 72, N-(6-(azepan-1-yl)-1-methyl-1H-indazol-5-yl)-2-(2-methylpyridin-4-yl)oxazole-4-carboxamide]
23 | < 0.05 µM | COCCn1ncc2cc(NC(=O)c3coc(-c4ccnc(C)c4)n3)c(N3CCC(O)CC3)cc21 [Example 75, N-(6-(4-hydroxypiperidin-1-yl)-1-(2-methoxyethyl)-1H-indazol-5-yl)-2-(2-methylpyridin-4-yl)oxazole-4-carboxamide]
24 | < 0.05 µM | COCCn1ncc2cc(NC(=O)c3coc(-c4ccnc(C)c4)n3)c(N3CCC(N)CC3)cc21 [Example 108, N-(6-(4-aminopiperidin-1-yl)-1-(2-methoxyethyl)-1H-indazol-5-yl)-2-(2-methylpyridin-4-yl)oxazole-4-carboxamide hydrochloride]
25 | < 0.05 µM | Cc1cnccc1-c1nc(C(=O)Nc2cc3cn(C4CCCC4)nc3cc2C2CC2)co1 [Example 27, N-(2-cyclopentyl-6-cyclopropyl-2H-indazol-5-yl)-2-(3-methylpyridin-4-yl)oxazole-4-carboxamide]
26 | < 0.05 µM | Cc1cc(-c2nc(C(=O)Nc3cc4cnn(C)c4cc3N3CC[C@H](O)C3)co2)ccn1 [Example 115, (S)—N-(6-(3-hydroxypyrrolidin-1-yl)-1-methyl-1H-indazol-5-yl)-2-(2-methylpyridin-4-yl)oxazole-4-carboxamide]
27 | < 0.05 µM | Cn1ncc2cc(NC(=O)c3coc(-c4ccnc(O)c4)n3)c(N3CCC(O)CC3)cc21 [Example 113, N-(6-(4-hydroxypiperidin-1-yl)-1-methyl-1H-indazol-5-yl)-2-(2-hydroxypyridin-4-yl)oxazole-4-carboxamide]
28 | < 0.05 µM | Cc1cc(-c2nc(C(=O)Nc3cc4cnn(C)c4cc3N3CCC(CO)CC3)co2)ccn1 [Example 89, N-(6-(4-(hydroxymethyl)piperidin-1-yl)-1-methyl-1H-indazol-5-yl)-2-(2-methylpyridin-4-yl)oxazole-4-carboxamide]
29 | < 0.05 µM | Cc1cc(-c2ccc(C(=O)Nc3cc4cn(C)nc4cc3N3CCC(O)CC3)o2)ccn1 [Example 67, N-(6-(4-hydroxypiperidin-1-yl)-2-methyl-2H-indazol-5-yl)-5-(2-methylpyridin-4-yl)furan-2-carboxamide]
30 | < 0.05 µM | COCCn1cc2cc(NC(=O)c3coc(-c4ccnc(C)c4)n3)c(N3CCC(N)CC3)cc2n1 [Example 118, N-(6-(4-aminopiperidin-1-yl)-2-(2-methoxyethyl)-2H-indazol-5-yl)-2-(2-methylpyridin-4-yl)oxazole-4-carboxamide hydrochloride]

— patent publication US10160753B2, “Indazole compounds as IRAK4 inhibitors” (Aurigene Discovery Technologies Limited, priority 2014, dated 2018)
